According to patent publication US11155550B2, “Histone deacetylase inhibitors and methods of use thereof” (Reaction Biology Corp., priority 2018, dated 2021):

Columns and labels:
Details in all cases: Table 2; incubation time 10 min
[1] = target: T1, Human HDAC4 (Homo sapiens, UniProt P56524); assay: Biochemical HDAC enzymatic assay, HDAC4
T1 construct: amino acids 627-1085 with a N-terminal GST tag; GST tag (N); made in house; host or cells: baculovirus expression system
Protocol: (§1) Incubation time for HDAC1/2 is 120 min, and 10 min for other HDACs.
Human HDAC4 (GenBank Accession No. NM_006037), amino acids 627-1085 with a N-terminal GST tag, MW=75.2 kDa, was expressed in a baculovirus expression system.
(§2) • I. Compound handling: Testing compounds were dissolved in 100% DMSO to a specific concentration. The serial dilution was conducted by epMotion 5070 in DMSO. • II. HDAC reaction buffer: 50 mM Tris-HCl, pH8.0, 137 mM NaCl, 2.7 mM KCl, and 1 mM MgCl2, Added fresh: 1 mg/ml BSA, 1% DMSO. • III. […] Delivered 2× Substrate Mixture (Fluorogenic HDAC Substrate and co-factor ([…] of Nicotinamide adenine dinucleotide (NAD^+) in all Sirt assay) in all reaction wells to initiate the reaction. Spin and shake. • d. Incubated for 1-2 hr. at 30° C. with seal. • e. Added Developer with Trichostatin A (or TMP269 or NAD^+) to stop the reaction and to generate fluorescent color. • f. Fluorescence was read (excitatory, 360; emission, 460) using the EnVision Multilabel Plate Reader (Perkin Elmer) • g. Endpoint reading was taken for analysis after the development reaches plateau. • V. Data Analysis: The percentages of enzyme activity (relative to DMSO controls) and IC50 values were calculated using the GraphPad Prism 4 program based on a sigmoidal dose-response equation. […]

[2] = target: T2, Human HDAC5 (Homo sapiens, UniProt Q9UQL6); assay: Biochemical HDAC enzymatic assay, HDAC5
T2 construct: full-length with an N-terminal GST tag, MW=150 kDa; GST tag (N); made in house; host or cells: baculovirus expression system
T2 sequence (Q9UQL6 whole entry): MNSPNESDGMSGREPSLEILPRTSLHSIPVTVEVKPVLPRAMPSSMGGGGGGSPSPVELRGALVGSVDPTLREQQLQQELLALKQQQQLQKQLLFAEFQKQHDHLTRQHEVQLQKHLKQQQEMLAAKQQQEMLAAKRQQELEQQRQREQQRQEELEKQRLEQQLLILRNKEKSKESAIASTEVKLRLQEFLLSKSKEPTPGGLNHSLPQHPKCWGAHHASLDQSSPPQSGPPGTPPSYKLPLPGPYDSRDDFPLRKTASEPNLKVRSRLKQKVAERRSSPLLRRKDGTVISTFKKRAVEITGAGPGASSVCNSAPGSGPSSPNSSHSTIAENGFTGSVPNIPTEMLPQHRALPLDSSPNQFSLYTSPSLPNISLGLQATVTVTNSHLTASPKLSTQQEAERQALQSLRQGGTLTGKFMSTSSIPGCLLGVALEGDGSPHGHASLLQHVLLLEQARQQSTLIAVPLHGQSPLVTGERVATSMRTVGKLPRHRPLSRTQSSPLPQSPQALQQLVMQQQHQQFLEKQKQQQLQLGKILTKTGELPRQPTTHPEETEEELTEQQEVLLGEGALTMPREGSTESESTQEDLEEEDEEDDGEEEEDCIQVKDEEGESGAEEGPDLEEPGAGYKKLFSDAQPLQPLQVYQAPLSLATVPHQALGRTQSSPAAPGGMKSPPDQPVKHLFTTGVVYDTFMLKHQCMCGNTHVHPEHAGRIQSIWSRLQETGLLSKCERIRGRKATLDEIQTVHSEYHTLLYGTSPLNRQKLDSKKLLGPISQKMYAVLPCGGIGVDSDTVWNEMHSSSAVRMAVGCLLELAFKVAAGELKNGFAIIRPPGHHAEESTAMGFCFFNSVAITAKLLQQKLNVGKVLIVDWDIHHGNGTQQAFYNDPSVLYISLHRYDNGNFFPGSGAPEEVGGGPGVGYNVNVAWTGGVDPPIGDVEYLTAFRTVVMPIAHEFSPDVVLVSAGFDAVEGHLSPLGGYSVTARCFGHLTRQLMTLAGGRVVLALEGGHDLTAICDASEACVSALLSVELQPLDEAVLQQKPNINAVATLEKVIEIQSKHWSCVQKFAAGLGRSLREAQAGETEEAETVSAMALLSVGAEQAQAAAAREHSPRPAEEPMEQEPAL
Protocol: as §1
Human HDAC5 (GenBank Accession No. NM_005474), full-length with an N-terminal GST tag, MW=150 kDa, was expressed in a baculovirus expression system.
as §2

[3] = target: T3, Human HDAC7 (Homo sapiens, UniProt Q8WUI4); assay: Biochemical HDAC enzymatic assay, HDAC7
T3 construct: (a.a. 518-end) with an N-terminal GST tag; GST tag (N); made in house; host or cells: baculovirus expression system
T3 sequence (Q8WUI4 479-952 limits assumed): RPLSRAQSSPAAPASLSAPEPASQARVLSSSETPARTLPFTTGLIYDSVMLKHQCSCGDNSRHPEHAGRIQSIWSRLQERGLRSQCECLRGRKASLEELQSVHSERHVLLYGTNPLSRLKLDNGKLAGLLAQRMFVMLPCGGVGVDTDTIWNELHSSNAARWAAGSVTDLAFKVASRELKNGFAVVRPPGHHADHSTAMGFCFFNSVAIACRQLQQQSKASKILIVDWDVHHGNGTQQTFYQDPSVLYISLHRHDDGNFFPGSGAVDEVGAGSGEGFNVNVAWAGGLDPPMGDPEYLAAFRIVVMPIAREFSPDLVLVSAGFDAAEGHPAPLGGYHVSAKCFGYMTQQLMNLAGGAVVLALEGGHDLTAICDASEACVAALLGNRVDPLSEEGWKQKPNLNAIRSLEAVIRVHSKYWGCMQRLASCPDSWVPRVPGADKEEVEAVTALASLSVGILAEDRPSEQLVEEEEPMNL
Protocol: as §1
Human HDAC7 (GenBank Accession No. AY302468), (a.a. 518-end) with an N-terminal GST tag, MW=78 kDa, was expressed in a baculovirus expression system.
as §2

[4] = target: T4, Human HDAC9 (Homo sapiens, UniProt Q9UKV0); assay: Biochemical HDAC enzymatic assay, HDAC9
T4 construct: amino acids 604-1066 with a C-terminal His tag; His tag (C); made in house; host or cells: baculovirus expression system
T4 sequence (Q9UKV0 604-1066 isoform Q9UKV0-5): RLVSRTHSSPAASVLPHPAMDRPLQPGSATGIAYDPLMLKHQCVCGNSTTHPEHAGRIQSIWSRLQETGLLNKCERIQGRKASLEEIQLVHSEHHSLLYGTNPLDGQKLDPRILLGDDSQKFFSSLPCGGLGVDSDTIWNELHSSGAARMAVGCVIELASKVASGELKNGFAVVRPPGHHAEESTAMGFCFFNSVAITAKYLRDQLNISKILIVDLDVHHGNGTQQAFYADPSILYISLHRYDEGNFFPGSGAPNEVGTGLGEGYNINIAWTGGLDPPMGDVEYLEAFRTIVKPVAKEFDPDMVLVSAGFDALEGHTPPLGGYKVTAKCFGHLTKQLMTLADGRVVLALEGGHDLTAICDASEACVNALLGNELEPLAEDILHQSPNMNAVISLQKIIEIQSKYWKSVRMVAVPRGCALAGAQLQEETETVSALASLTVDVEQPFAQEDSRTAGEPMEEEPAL
Protocol: as §1
Human HDAC9 (GenBank Accession No. NM_178423), amino acids 604-1066 with a C-terminal His tag, MW=50.7 kDa, was expressed in a baculovirus expression system.
as §2

[5] = target: T5, Human HDAC11 (Homo sapiens, UniProt Q96DB2); assay: Biochemical HDAC enzymatic assay, HDAC11
T5 construct: Human HDAC11 (full length); GST tag (N); made in house; host or cells: baculovirus expression system
T5 sequence (Q96DB2 1-347): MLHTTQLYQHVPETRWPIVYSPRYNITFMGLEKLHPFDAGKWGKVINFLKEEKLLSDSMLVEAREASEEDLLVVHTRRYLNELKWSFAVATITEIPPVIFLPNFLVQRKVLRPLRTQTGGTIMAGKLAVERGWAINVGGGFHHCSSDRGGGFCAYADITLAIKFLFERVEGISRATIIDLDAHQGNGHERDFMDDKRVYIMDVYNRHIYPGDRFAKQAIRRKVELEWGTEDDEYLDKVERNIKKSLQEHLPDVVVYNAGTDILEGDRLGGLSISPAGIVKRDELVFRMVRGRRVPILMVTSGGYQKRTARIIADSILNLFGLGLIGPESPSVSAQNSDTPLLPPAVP
Protocol: as §1
Human HDAC11 (full length) (GenBank Accession No. NM_024827) with a N-terminal GST tag, MW=66 kDa, was expressed in a baculovirus expression system.
as §2

T1 sequence (P56524 627-1084 limits assumed): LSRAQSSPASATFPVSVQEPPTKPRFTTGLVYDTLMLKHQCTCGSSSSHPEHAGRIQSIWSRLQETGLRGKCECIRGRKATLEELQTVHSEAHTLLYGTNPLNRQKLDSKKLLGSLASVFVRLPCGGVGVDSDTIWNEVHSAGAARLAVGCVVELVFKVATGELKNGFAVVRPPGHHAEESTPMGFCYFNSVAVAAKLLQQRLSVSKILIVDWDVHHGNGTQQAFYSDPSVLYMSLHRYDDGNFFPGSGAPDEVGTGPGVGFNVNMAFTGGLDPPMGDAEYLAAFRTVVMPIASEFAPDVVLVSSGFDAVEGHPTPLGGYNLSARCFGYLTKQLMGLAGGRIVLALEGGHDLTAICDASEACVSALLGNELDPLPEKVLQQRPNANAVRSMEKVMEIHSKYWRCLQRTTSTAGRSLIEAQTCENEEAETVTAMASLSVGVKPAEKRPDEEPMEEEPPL

IC50 [1] [µM]	IC50 [2] [nM]	IC50 [3] [nM]	IC50 [4] [µM]	IC50 [5] [µM]	Structure (SMILES)
5	1550	850	3.2	4.1	CN(C)C(=O)N1CCC2(CC1)c1ccccc1C(=O)N2Cc1ccc(C(=O)NO)cc1 [Compound Example 11, 2-(4-(hydroxycarbamoyl)benzyl)-N,N-dimethyl-3-oxospiro[isoindoline-1,4′-piperidine]-1′-carboxamide]
> 10	> 10000	3100	6.9	3.6	O=C(NO)c1ccc(CN2C(=O)c3ccccc3C23CCN(C2CC2)CC3)cc1 [Compound Example 12, 4-((1′-cyclopropyl-3-oxospiro[isoindoline-1,4′-piperidin]-2-yl)methyl)-N-hydroxybenzamide]
